Test results taken from PubChem BioAssay AID1259407 (Chemical Carcinogenesis Research Information System (CCRIS), 2018).
Active and inactive are the calls of the source. The rule behind the calls is not given here.

Tested on: CCRIS mutagenicity, Ames/micronucleus/aberration tests
Experiment: CCRIS mutagenicity studies
[1] = Test System: AMES SALMONELLA TYPHIMURIUM, Strain/Indicator: TA98, Metabolic Activation: NONE, Method: PREINCUBATION
[2] = Test System: AMES SALMONELLA TYPHIMURIUM, Strain/Indicator: TA100, Metabolic Activation: NONE, Method: PREINCUBATION
[3] = Test System: AMES SALMONELLA TYPHIMURIUM, Strain/Indicator: TA1535, Metabolic Activation: NONE, Method: PREINCUBATION
[4] = Test System: AMES SALMONELLA TYPHIMURIUM, Strain/Indicator: TA98, Metabolic Activation: S-9, Method: STANDARD PLATE
[5] = Test System: AMES SALMONELLA TYPHIMURIUM, Strain/Indicator: TA100, Metabolic Activation: NONE, Method: STANDARD PLATE
[6] = Test System: AMES SALMONELLA TYPHIMURIUM, Strain/Indicator: TA100, Metabolic Activation: S-9, Method: STANDARD PLATE
[7] = Test System: AMES SALMONELLA TYPHIMURIUM, Strain/Indicator: TA1535, Metabolic Activation: NONE, Method: STANDARD PLATE
[8] = Test System: AMES SALMONELLA TYPHIMURIUM, Strain/Indicator: TA98, Metabolic Activation: NONE, Method: STANDARD PLATE

Compound: Cc1cc2[nH]c3cc(C)c4ccccc4c3c2c2ccccc12
- mutagenic call (Test System: AMES SALMONELLA TYPHIMURIUM, Strain/Indicator: TA100, Metabolic Activation: RAT, LIVER, S-9, AROCLOR 1254, Method: STANDARD PLATE): active; positive

Compound: NC(=O)N(c1ccccc1)c1ccc(C(=O)O)cc1
- mutagenic call (Test System: AMES SALMONELLA TYPHIMURIUM, Strain/Indicator: TA98, Metabolic Activation: MAIZE SEEDLING, S-14, Method: PREINCUBATION): active; positive
- mutagenic call (Test System: AMES SALMONELLA TYPHIMURIUM, Strain/Indicator: TA98, Metabolic Activation: MOUSE, LIVER, S-9, Method: PREINCUBATION): inactive; negative
- mutagenic call [1]: inactive; negative
- mutagenic call (Test System: AMES SALMONELLA TYPHIMURIUM, Strain/Indicator: TA100, Metabolic Activation: MAIZE SEEDLING, S-14, Method: PREINCUBATION): inactive; negative
- mutagenic call (Test System: AMES SALMONELLA TYPHIMURIUM, Strain/Indicator: TA100, Metabolic Activation: MOUSE, LIVER, S-9, Method: PREINCUBATION): inactive; negative
- mutagenic call [2]: inactive; negative
- mutagenic call [3]: inactive; negative
- mutagenic call (Test System: AMES SALMONELLA TYPHIMURIUM, Strain/Indicator: TA1537, Metabolic Activation: NONE, Method: PREINCUBATION): inactive; negative
- mutagenic call (Test System: AMES SALMONELLA TYPHIMURIUM, Strain/Indicator: TA1538, Metabolic Activation: NONE, Method: PREINCUBATION): inactive; negative

Compound: COc1cc(Oc2ccc(Cl)cc2Cl)ccc1[N+](=O)[O-]
- mutagenic call [4]: inactive; negative
- mutagenic call [5]: active; positive
- mutagenic call [6]: inactive; negative
- mutagenic call (Test System: AMES SALMONELLA TYPHIMURIUM, Strain/Indicator: TA100, Metabolic Activation: S-9 MIX, Method: STANDARD PLATE): inactive; negative
- mutagenic call (Test System: AMES SALMONELLA TYPHIMURIUM, Strain/Indicator: YG1021, Metabolic Activation: NONE, Method: PREINCUBATION): active; positive
- mutagenic call (Test System: AMES SALMONELLA TYPHIMURIUM, Strain/Indicator: YG1021, Metabolic Activation: RAT, LIVER, S-9, PCB, Method: PREINCUBATION): active; positive
- mutagenic call (Test System: AMES SALMONELLA TYPHIMURIUM, Strain/Indicator: YG1021, Metabolic Activation: S-9, Method: STANDARD PLATE): inactive; negative
- mutagenic call (Test System: AMES SALMONELLA TYPHIMURIUM, Strain/Indicator: YG1024, Metabolic Activation: S-9, Method: STANDARD PLATE): inactive; negative
- mutagenic call (Test System: AMES SALMONELLA TYPHIMURIUM, Strain/Indicator: YG1026, Metabolic Activation: NONE, Method: PREINCUBATION): active; positive
- mutagenic call (Test System: AMES SALMONELLA TYPHIMURIUM, Strain/Indicator: YG1026, Metabolic Activation: RAT, LIVER, S-9, PCB, Method: PREINCUBATION): active; positive
- mutagenic call (Test System: AMES SALMONELLA TYPHIMURIUM, Strain/Indicator: YG1026, Metabolic Activation: S-9, Method: STANDARD PLATE): inactive; negative
- mutagenic call (Test System: AMES SALMONELLA TYPHIMURIUM, Strain/Indicator: YG1029, Metabolic Activation: S-9, Method: STANDARD PLATE): inactive; negative

Compound: c1ccc(-c2ccccc2OCC2CO2)cc1 (centres undefined)
- mutagenic call [5]: active; positive
- mutagenic call [7]: active; positive

Compound: Cc1nc(-c2ccc([N+](=O)[O-])o2)cs1
- mutagenic call (Test System: AMES SALMONELLA TYPHIMURIUM, Strain/Indicator: TA100, Metabolic Activation: RAT, LIVER, S-9, KC500 OR PHENOBARBITAL, Method: LIQUID SUSPENSION): active; positive

Compound: COc1cccc(/C=C/c2ccc([N+](=O)[O-])cc2)c1
- mutagenic call (Test System: AMES SALMONELLA TYPHIMURIUM, Strain/Indicator: TA98(NR), Metabolic Activation: NONE, Method: STANDARD PLATE): active; positive
- mutagenic call (Test System: AMES SALMONELLA TYPHIMURIUM, Strain/Indicator: TA98(NR), Metabolic Activation: S-9, Method: STANDARD PLATE): active; positive
- mutagenic call [8]: active; positive
- mutagenic call [4]: active; positive
- mutagenic call (Test System: AMES SALMONELLA TYPHIMURIUM, Strain/Indicator: TA100 (NR), Metabolic Activation: NONE, Method: STANDARD PLATE): active; positive
- mutagenic call (Test System: AMES SALMONELLA TYPHIMURIUM, Strain/Indicator: TA100 (NR), Metabolic Activation: S-9, Method: STANDARD PLATE): active; positive
- mutagenic call [5]: active; positive
- mutagenic call [6]: active; positive

Compound: CC(=O)O/C=C/Cc1ccc2c(c1)OCO2
- mutagenic call (Test System: UDS HUMAN FIBROBLASTS, Strain/Indicator: THY INCORP (NON-S-PHASE), Metabolic Activation: NONE, Method: AUTORADIOGRAPHY): active; positive

Compound: Nc1ccccc1S(=O)(=O)O
- mutagenic call (Test System: AMES SALMONELLA TYPHIMURIUM, Strain/Indicator: TA97, Metabolic Activation: HAMSTER, LIVER, S-9, AROCLOR 1254 (10 OR 30%), Method: PREINCUBATION): inactive; negative
- mutagenic call (Test System: AMES SALMONELLA TYPHIMURIUM, Strain/Indicator: TA97, Metabolic Activation: NONE, Method: PREINCUBATION): inactive; negative
- mutagenic call (Test System: AMES SALMONELLA TYPHIMURIUM, Strain/Indicator: TA97, Metabolic Activation: RAT, LIVER, S-9, AROCLOR 1254 (10%), Method: PREINCUBATION): inactive; negative
- mutagenic call (Test System: AMES SALMONELLA TYPHIMURIUM, Strain/Indicator: TA97, Metabolic Activation: RAT, LIVER, S-9, AROCLOR 1254 (30%), Method: PREINCUBATION): inactive; negative
- mutagenic call (Test System: AMES SALMONELLA TYPHIMURIUM, Strain/Indicator: TA98, Metabolic Activation: HAMSTER, LIVER, S-9, AROCLOR 1254 (10 OR 30%), Method: PREINCUBATION): inactive; negative
- mutagenic call (Test System: AMES SALMONELLA TYPHIMURIUM, Strain/Indicator: TA98, Metabolic Activation: RAT, LIVER, S-9, AROCLOR 1254 (10 OR 30%), Method: PREINCUBATION): inactive; negative
- mutagenic call (Test System: AMES SALMONELLA TYPHIMURIUM, Strain/Indicator: TA100, Metabolic Activation: HAMSTER, LIVER, S-9, AROCLOR 1254 (10 OR 30%), Method: PREINCUBATION): inactive; negative
- mutagenic call [2]: inactive; negative
- mutagenic call (Test System: AMES SALMONELLA TYPHIMURIUM, Strain/Indicator: TA100, Metabolic Activation: RAT, LIVER, S-9, AROCLOR 1254 (10 OR 30%), Method: PREINCUBATION): inactive; negative
- mutagenic call (Test System: AMES SALMONELLA TYPHIMURIUM, Strain/Indicator: TA1535, Metabolic Activation: HAMSTER, LIVER, S-9, AROCLOR 1254 (10 OR 30%), Method: PREINCUBATION): inactive; negative
- mutagenic call [3]: inactive; negative
- mutagenic call (Test System: AMES SALMONELLA TYPHIMURIUM, Strain/Indicator: TA1535, Metabolic Activation: RAT, LIVER, S-9, AROCLOR 1254 (10 OR 30%), Method: PREINCUBATION): inactive; negative

Compound: ONc1ccc(-c2ccccc2)cc1
- mutagenic call (Test System: AMES SALMONELLA TYPHIMURIUM, Strain/Indicator: TA98(1,8-DNP6), Metabolic Activation: NONE, Method: PREINCUBATION): active; positive
- mutagenic call [1]: active; positive
- mutagenic call [8]: active; positive
- mutagenic call [4]: active; positive
- mutagenic call [5]: active; positive
- mutagenic call [6]: active; positive
- mutagenic call [7]: inactive; negative
- mutagenic call (Test System: AMES SALMONELLA TYPHIMURIUM, Strain/Indicator: YG1024, Metabolic Activation: NONE, Method: PREINCUBATION): active; positive
- mutagenic call (Test System: E. COLI, Strain/Indicator: WP2, Metabolic Activation: NONE, Method: PREINCUBATION): active; positive
- mutagenic call (Test System: E. COLI, Strain/Indicator: WP2 UVRA(P), Metabolic Activation: NONE, Method: STANDARD PLATE): active; positive
- mutagenic call (Test System: E. COLI, Strain/Indicator: WP2 UVRA, Metabolic Activation: NONE, Method: FLUCTUATION TEST): active; positive
- mutagenic call (Test System: E. COLI, Strain/Indicator: WP2 UVRA, Metabolic Activation: NONE, Method: PREINCUBATION): active; positive
- mutagenic call (Test System: E. COLI, Strain/Indicator: WP2 UVRA, Metabolic Activation: NONE, Method: STANDARD PLATE): active; positive
